The source of these data is patent US9937139B2 (priority 2014, dated 2018).

The subject of one test is B16 melanoma cells. Put plainly: In vivo tumor growth suppression, B16 efficacy model. As to conditions: C57BL/6 mice, s.c. B16 melanoma, IP daily for 12 days; test compound 5 mg/kg and 10 mg/kg (dose of tabulated value not stated), melphalan 2.5 mg/kg.
Test [1] relates to LLCPK cells conditionally expressing hLAT1. Put plainly: LAT1-specific in vitro cytotoxicity, modified clonigenic assay. In kind it is cell-based. As to conditions: 3 μM test compound for 30 min, then 7-10 days proliferation; induced (LAT1+) vs non-induced.

As for `Cc1ccc(N(CCCl)CCCl)cc1C(C)(CN)CC(=O)O` (centres unmarked) [Example 5, 4-Amino-3-[5-[bis(2-chloroethyl)amino]-2-methyl-phenyl]-3-methyl-butanoic acid], in the test with B16 melanoma cells, the “Tumor Growth (% Control) 5 days post-dosing” value stood at 14 % Control and the “Tumor Growth (% Control) End of dosing” value is 13 % Control.

For `Cc1c(N(CCCl)CCCl)cccc1C(C)(CN)CC(=O)O` (centres unmarked) [Example 6, 4-Amino-3-[3-[bis(2-chloroethyl)amino]-2-methyl-phenyl]-3-methyl-butanoic acid], the “percent surviving cells in cells expressing LAT1 compared to cells not expressing LAT1” value in test [1] is “about the same”.

In the case of `Cc1cc(N(CCCl)CCCl)ccc1C(C)(CN)CC(=O)O` (centres unmarked) [Example 7, 4-Amino-3-[4-[bis(2-chloroethyl)amino]-2-methyl-phenyl]-3-methyl-butanoic acid], in the test on B16 melanoma cells, the “Tumor Growth (% Control) 5 days post-dosing” value came out at 50 % Control and the “Tumor Growth (% Control) End of dosing” value is on record as 38 % Control.

With `N[C@@H](Cc1ccc(N(CCCl)CCCl)cc1)C(=O)O` [Melphalan, melphalan, reference compound], the “percent surviving cells in cells expressing LAT1 compared to cells not expressing LAT1” value in test [1] is reported as “about the same”. Further, in the test on B16 melanoma cells, the “Tumor Growth (% Control) 5 days post-dosing” value was 56 % Control and the “Tumor Growth (% Control) End of dosing” value is recorded as 33 % Control.
